Experimental data: patent US20100015709A1, “Regulating Stem Cell Differentiation By Controlling 2D and 3D Matrix Elasticity” (Trustees of the University of Pennsylvania, priority 2006, published 2010)

Assays:
[1] = system: neuronal motility; conditions: at mM concentrations; cited from earlier work
[2] = system: MSCs; experiment: MSC morphology (branching, spindle factor, spreading) on collagen-coated gels; format: cell-based, human
Procedure: Cell Culture: Human Mesenchymal Stem Cells (MSCs; Osiris Therapeutics; Baltimore, Md. or Lonza), human osteoblasts (hFOBs; ATCC, Manassas, Va.), primary human skin fibroblasts (FC7) (Engler et al., 2004c, supra), and murine myoblasts (C2C12s; ATCC) were cultured in normal growth media, such as low glucose DMEM (Invitrogen) supplemented with 10% fetal bovine serum (FBS, Sigma) and 1% penicillin/streptomycin (Invitrogen) in regular tissue culture treated flasks (Corning). See also, U.S. Ser. No. 11/351,420. Media was exchanged every other day and cells were used up to passage number nine.
(§1) To inhibit proliferation, cells were exposed to mitomycin C (10 μg/ml) for 2 hr and washed three times with media prior to plating. Blebbistatin (50 μM; EMD Biosciences, Inc., San Diego, Calif.), a NMM II inhibitor, was applied with every media change and was stable in culture media for up to 48 hours, as determined by thin layer chromatography.
(§2) 1) Morphological Changes and Immunofluorescence: Changes in cell shape (<4 days), especially the development of neurite-like branches (Engler et al., 2004c, supra) or spindle-like morphologies (Flanagan et al., 2002, supra), were quantified either by the number of membrane branches per mm of cell or by a “spindle factor,” referring to the major cell axis/minor cell axis, respectively. […]

[3] = Stability in culture media by thin layer chromatography; format: physicochemical; conditions: 50 μM
Procedure: as §1

[4] = system: MSCs; experiment: Lineage marker expression (immunofluorescence, western blot, oligonucleotide array); format: cell-based, human; conditions: blebbistatin 50 μM
Procedure: as §2
Cells were fixed with formaldehyde, incubated in a 5% albumin blocking solution for 1 hour at 37° C., permeabilized with 0.5% Triton-X-100 and incubated overnight at 4° C. in 1:100 dilution of antibodies in PBS. […] Cell morphology and fluorescently labeled cells were examined on a TE300 inverted epi-fluorescent Nikon or Olympus (TIRF) microscope, imaged on a cascade CCD camera (PhotoMetrics, Huntington, Beach, Calif.), and quantified with Scion Image (Scion Corp., Frederick, Md.).
2) Western blotting: Cells (with or without blebbistatin treatment, 50 μM) were also plated on 45×50 mm coverslips to obtain enough cells for western blotting. […] Quantification of western blots was done by Scion Image software. […]

[5] = system: MSCs, C2C12-myoblasts, hFOB-osteoblasts; experiment: Creep-test micropipette aspiration, membrane cortical stiffness; format: cell-based
Procedure: Creep-test Micropipette Aspiration: Micropipettes were forged using a deFonbrune-type microforge (Vibratome, St. Louis, Mo.) to a radius of 2-3 μm with an approximately 25° pipette curvature so when mounted in micromanipulators (Nirishige; Japan) at an angle similar to the micropipette's curvature. The end of the pipette was flush with the cell edge. A step pressure drop was imposed on the cell membrane, causing the membrane projection, L, to aspirate into the pipette as a function of time (t), pressure drop (ΔP) and pipette radius (R), as governed by the Sato and coworkers' viscoelastic half-space model (Sato et al., J. Biomech. Eng. 112:263-268 (1990), herein incorporated by reference:
Images of the projection length were taken every 2 seconds in brightfield on a TE300 inverted Nikon microscope and cascade CCD camera (Photometrics), which allowed accurate fitting of the parameters κ, μ′, and τ to the data to determine the elastic and viscous moduli of each membrane.

[6] = system: MSCs, C2C12-myoblasts, hFOB-osteoblasts; experiment: Traction force measurement, cell pre-stress; format: cell-based; conditions: any matrix
Source text: Traction Force Measurements: Adhesive stresses, imposed on the matrix surface by an adherent cell, generate a displacement field from embedded beads within a soft substratum, which can be mapped on the cell if the gel can be approximated as a semi-infinite solid. Briefly, the well characterized traction force method (Butler et al., 2002, supra; Dembo et al., 1999, supra; Wang et al., 2002b, supra) uses bead displacements between images with, and without, the adherent cell to assemble a displacement field and determine Green's strain function given known material properties of the substratum (elastic modulus, Poisson's ratio, etc). The traction field was used to obtain the cell pre-stress, i.e., the net tensile force over the cell-matrix interface carried by the actin cytoskeleton across a cross-sectional area of the cell that balances cell traction forces (Wang et al., 2002b, supra).

[7] = system: MSCs; experiment: 3D hydrogel sandwich overlay, cell morphology; format: cell-based, human; conditions: treated after the overlay procedure
Procedure: Hydrogel Sandwich Preparation: The whole procedure is performed in a biosafety cabinet to maintain sterility. All equipment used was either sterile or sterilized by UV treatment for one hour. To produce the sandwich-like structures, cells were cultured for a given time on regular 2D substrates supported by 25 mm aminosilanized cover slips, rinsed with PBS and dried of the bulk liquid. 35 μl of the hydrogel mixture was added immediately and the sample was covered with a hydrophobic chlorosilanized glass slip to create a homogenous overlay gel. After one hour the top cover slip was carefully removed and the sandwich rinsed with PBS to remove any unbound residues. Subsequently, the gels were incubated for two hours at 37° C./5.0% CO2 in media supplemented with 1.5% or 2% cysteine (w/v) or iodacetamide solution using a shaker to cap or inactivate any remaining free thiols. […]
Immuno-staining, fluorescence microscopy, and image analysis: Cells were fixed for five minutes in a 10% solution of formaldehyde (Sigma) in PBS (Gibco) and subsequently permeabilized with a 0.5% solution of TritonX 100 (Sigma) in PBS followed by rinsing in PBS. […]
Cell area A and spindle factor r (ratio of major to minor axis of a fitted ellipse) were determined using the built-in functions of ImageJ (available at http:rsb.info.nih.gov/ij; developed by Wayne Rasband, National Institutes of Health, Bethesda, Md.). […]

[8] = system: hMSCs; experiment: Nucleus morphology of hMSCs on gels; format: cell-based, human; conditions: 11 kPa substrates
Procedure: Immuno-staining, fluorescence microscopy, and image analysis: Cells were fixed for five minutes in a 10% solution of formaldehyde (Sigma) in PBS (Gibco) and subsequently permeabilized with a 0.5% solution of TritonX 100 (Sigma) in PBS followed by rinsing in PBS. Samples were then incubated in a 1:250 solution of the appropriate primary antibody in a 3% solution of BSA (Sigma) in PBS for at least 2 hours at room temperature on a rocker. To remove any unspecifically bound antibodies, the gels were incubated with a 0.5% solution of TritonX 100 for five minutes and rinsed with PBS twice, followed by incubation with secondary antibodies (1:250 in 3% BSA in PBS) and rhodamine-phalloidin (Sigma) for at least one hour on a rocker at room temperature. […]
Cell area A and spindle factor r (ratio of major to minor axis of a fitted ellipse) were determined using the built-in functions of ImageJ (available at http:rsb.info.nih.gov/ij; developed by Wayne Rasband, National Institutes of Health, Bethesda, Md.).
Since matrix elasticity not only influences cell and cytoskeleton morphology, but also the differentiation of hMSCs, and therefore global changes in patterns of gene expression, the morphology of the nucleus was analyzed in terms of projected area A and spindle factor of the projected area r to gain insight into the transduction of mechanical signals from the matrix to the nucleus. […]

[9] = system: NMM II ATPase; conditions: cited from earlier work
[10] = molecular target: myosin light chain kinase (MLCK) (Homo sapiens, UniProt Q15746); conditions: at concentrations inhibiting NMM II ATPase; cited from earlier work
Sequence of myosin light chain kinase (MLCK) (Q15746 whole entry): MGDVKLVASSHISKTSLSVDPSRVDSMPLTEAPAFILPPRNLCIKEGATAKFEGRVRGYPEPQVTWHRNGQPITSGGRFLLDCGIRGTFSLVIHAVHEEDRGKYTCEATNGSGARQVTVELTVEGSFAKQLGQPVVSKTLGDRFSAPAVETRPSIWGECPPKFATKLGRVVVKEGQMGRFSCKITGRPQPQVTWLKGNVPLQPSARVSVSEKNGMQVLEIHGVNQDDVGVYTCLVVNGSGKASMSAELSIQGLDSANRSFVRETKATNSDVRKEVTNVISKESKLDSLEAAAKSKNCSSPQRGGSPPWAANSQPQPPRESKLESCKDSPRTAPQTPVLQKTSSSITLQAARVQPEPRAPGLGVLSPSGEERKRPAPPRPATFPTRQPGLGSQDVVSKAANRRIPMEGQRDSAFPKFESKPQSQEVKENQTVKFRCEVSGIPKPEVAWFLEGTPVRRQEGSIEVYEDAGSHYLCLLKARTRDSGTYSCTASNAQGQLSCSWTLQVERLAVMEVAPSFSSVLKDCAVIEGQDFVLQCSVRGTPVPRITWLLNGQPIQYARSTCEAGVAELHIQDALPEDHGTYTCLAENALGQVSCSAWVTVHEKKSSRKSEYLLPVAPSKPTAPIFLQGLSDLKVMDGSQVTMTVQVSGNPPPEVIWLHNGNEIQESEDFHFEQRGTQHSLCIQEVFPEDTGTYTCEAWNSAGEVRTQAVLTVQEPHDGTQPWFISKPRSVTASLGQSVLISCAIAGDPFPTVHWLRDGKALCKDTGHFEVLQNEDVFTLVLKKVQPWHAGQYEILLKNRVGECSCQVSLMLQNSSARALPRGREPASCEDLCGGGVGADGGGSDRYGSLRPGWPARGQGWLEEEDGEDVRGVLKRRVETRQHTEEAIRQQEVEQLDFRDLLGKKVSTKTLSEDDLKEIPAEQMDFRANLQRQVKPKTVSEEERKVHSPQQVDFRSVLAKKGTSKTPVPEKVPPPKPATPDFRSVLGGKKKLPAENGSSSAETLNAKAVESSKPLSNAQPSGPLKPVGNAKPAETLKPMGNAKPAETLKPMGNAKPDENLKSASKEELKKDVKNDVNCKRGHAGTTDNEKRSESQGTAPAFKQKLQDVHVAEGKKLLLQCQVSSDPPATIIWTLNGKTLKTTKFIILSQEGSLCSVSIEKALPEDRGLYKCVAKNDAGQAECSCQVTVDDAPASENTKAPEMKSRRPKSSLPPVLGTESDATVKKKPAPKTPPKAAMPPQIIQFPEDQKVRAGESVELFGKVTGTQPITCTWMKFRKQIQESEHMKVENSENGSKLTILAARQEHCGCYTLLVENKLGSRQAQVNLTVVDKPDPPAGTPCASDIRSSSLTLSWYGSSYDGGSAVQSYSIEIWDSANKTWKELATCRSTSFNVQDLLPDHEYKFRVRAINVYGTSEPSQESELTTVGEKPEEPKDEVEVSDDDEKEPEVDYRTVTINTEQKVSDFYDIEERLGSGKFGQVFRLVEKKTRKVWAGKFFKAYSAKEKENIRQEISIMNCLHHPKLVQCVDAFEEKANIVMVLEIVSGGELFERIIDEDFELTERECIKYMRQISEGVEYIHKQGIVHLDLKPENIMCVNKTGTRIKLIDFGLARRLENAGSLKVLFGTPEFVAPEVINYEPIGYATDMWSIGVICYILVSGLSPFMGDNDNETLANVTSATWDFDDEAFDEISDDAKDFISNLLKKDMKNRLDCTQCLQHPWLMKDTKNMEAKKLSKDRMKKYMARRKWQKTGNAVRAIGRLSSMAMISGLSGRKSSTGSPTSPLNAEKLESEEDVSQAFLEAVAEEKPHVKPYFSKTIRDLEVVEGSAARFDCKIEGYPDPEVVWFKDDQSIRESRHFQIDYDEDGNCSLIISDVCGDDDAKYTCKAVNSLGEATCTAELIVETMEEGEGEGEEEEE

[11] = system: vertebrate cells; conditions: cited from earlier work

CC(=O)/C(C)=N/O [BDM]
neuronal motility [1]: block neuronal motility

Cc1ccc2c(c1)C(=O)C1(O)CCN(c3ccccc3)C1=N2 (centres unmarked) [blebbistatin]
branching, elongation and spreading of MSCs ([2]; blebbistatin 50 μM, cells on any substrate): block branching, elongation, and any significant spreading of MSCs
stability in culture media [3]: up to 48 hours
lineage marker expression by MSCs [4]: blocked all marker expression
development of cortical stiffness κ ([5]; any matrix): prevented any of the cells from developing
softening of cell membranes (membrane cortical stiffness) ([5]; micropipette aspiration, all gels): more than 3 fold
development of pre-stress σ [6]: prevented any of the cells from developing
actin stress fibers of cells in sandwich overlay [7]: lacked any organized actin stress fibers
spindle factor r of cells in sandwich overlay [7]: not significantly different from that of the 2D control
matrix-dependent change of nucleus projected area and aspect ratio [8]: inhibited
drug concentration inhibiting NMM II ATPase activity [9]: < 10 µM
effect on myosin light chain kinase [10]: without affecting
cell blebbing, directed cell migration and cytokinesis [11]: blocking cell blebbing and rapidly disrupting directed cell migration and cytokinesis

CO[C@@]12[C@H](COC(N)=O)C3=C(C(=O)C(C)=C(N)C3=O)N1C[C@@H]1N[C@@H]12 [mitomycin-C, mitomycin C]
average cell shape after inhibition of proliferation ([2]; mitomycin C 10 μg/ml for 2 hr before plating): little impact on average cell shape
